Data as given in PubChem BioAssay AID651973 (The Scripps Research Institute Molecular Screening Center, 2013).
The source made the active and inactive calls. The rule behind the calls is not given here.

Tested on: Cell-based VP16 transactivation luciferase reporter, luminescence
Assay: VP16 transactivation reporter inhibitors, dose response, counter-screen for LRH-1 inverse agonist project, cell-based, luminescence (AID 651973)

Which IC50 does the source give for CCC(=O)Nc1nnc(SCC(=O)NCCc2ccc(OC)c(OC)c2)s1 here?
The IC50 was > 35.9 µM (inactive).

How did the IC50 turn out when Cc1nnc(SCC(=O)Nc2ccc(Br)cc2)n(N)c1=O was run?
The IC50 was > 35.9 µM (inactive).

Which IC50 does the source give for CC1(C(=O)NCc2ccc3c(c2)OCO3)CCN1C(=O)Cc1ccc(Cl)cc1Cl (stereo not drawn) here?
The IC50 was > 35.9 µM (inactive).

How did the IC50 turn out when COc1ccccc1NC(=O)CN1CCN(CC(=O)Nc2ccc(S(N)(=O)=O)cc2)CC1 was run?
Its IC50 is 20.4 µM (inactive).

Which IC50 does the source give for CC(=O)Nc1ccc(NC(=O)CSc2ccc(-c3ccco3)nn2)cc1 here?
Its IC50 is > 35.9 µM (inactive).

For CC(=O)c1ccc(NC(=O)C(C)O/N=C(\N)c2ccccc2)cc1 (stereo not drawn), which IC50 is on record?
The IC50 was > 35.9 µM (inactive).

O=C(Nc1ccc(C(=O)N2CCOCC2)cc1)c1cccc([N+](=O)[O-])c1 was tested. Which IC50 did it give?
The IC50 was > 35.9 µM (inactive).

COc1ccc(NC(=O)COC(=O)c2cc(S(=O)(=O)N3CCCC3)ccc2O)cc1 was tested. Which IC50 did it give?
The IC50 was > 35.9 µM (inactive).

Cc1ccc(NC(=O)CSc2nc3[nH]c(=O)cc(O)c3s2)c(Br)c1 was tested. Which IC50 did it give?
The IC50 was > 35.9 µM (inactive).

With CN(C)S(=O)(=O)c1cccc(C(=O)OCC(=O)Nc2ccc3c(c2)OCCO3)c1 as the compound, how does the IC50 read?
The IC50 was > 35.9 µM (inactive).

How did the IC50 turn out when CC1CCC2(CC1)NC(=O)N(CC(=O)Nc1ccc3c(c1)OCCCO3)C2=O (stereo not drawn) was run?
The IC50 was > 35.9 µM (inactive).

CCCc1cc(=O)oc2cc(OCC(=O)NCc3ccccn3)ccc12 was tested. Which IC50 did it give?
The IC50 was > 35.9 µM (inactive).

Which IC50 does the source give for CCOc1ccc(NC(=O)CSc2nncc(=O)[nH]2)cc1 here?
The IC50 was > 35.9 µM (inactive).

For CCc1cc(=O)oc2cc(C)cc(OCC(=O)NC3CC3)c12, which IC50 is on record?
Its IC50 is > 35.9 µM (inactive).

How did the IC50 turn out when O=C(COc1ccc2c3c(c(=O)oc2c1)CCC3)NCc1ccncc1 was run?
Its IC50 is > 35.9 µM (inactive).

How did the IC50 turn out when Cc1ccccc1Nc1nc(-c2cccnc2)nc2ccccc12 was run?
The IC50 was 34.6 µM (inactive).

Which IC50 does the source give for Cc1sc(NC(=O)C(C)C)c(C(=O)Nc2ccccc2)c1C here?
The IC50 was > 35.9 µM (inactive).

COc1cc2c(cc1OC)CN(C(=O)CN1C(=O)NC3(CCC(C)CC3)C1=O)CC2 (stereo not drawn) was tested. Which IC50 did it give?
The IC50 was > 35.9 µM (inactive).

How did the IC50 turn out when COc1ccc(NC(=O)COC(=O)c2c(-c3ccccc3)noc2C)cc1 was run?
The IC50 was > 35.9 µM (inactive).

COc1cc(/C=N/NC(N)=S)ccc1OCC(=O)Nc1ccc(C)cc1 was tested. Which IC50 did it give?
Its IC50 is > 35.9 µM (inactive).

CC(=O)Nc1ncc(Cc2cc(Cl)ccc2Cl)s1 was tested. Which IC50 did it give?
Its IC50 is > 35.9 µM (inactive).

How did the IC50 turn out when Cc1onc(-c2cccc(Cl)c2Cl)c1C(=O)O/N=C(\N)c1ccc([N+](=O)[O-])o1 was run?
The IC50 was > 35.9 µM (inactive).

With COc1ccc(NC(=O)CSc2ccc3c(c2)OCCO3)cc1 as the compound, how does the IC50 read?
Its IC50 is > 35.9 µM (inactive).

CCCN(CC(=O)Nc1ccccc1C)CC(=O)Nc1ccc(Br)cc1F was tested. Which IC50 did it give?
The IC50 was > 35.9 µM (inactive).

For COc1ccc(CCNC(=O)CSc2nn3c(=O)c(C)nnc3s2)cc1OC, which IC50 is on record?
Its IC50 is > 35.9 µM (inactive).

With CCc1cc(=O)oc2c(C)c(OCC(=O)NC3CC(C)(C)NC(C)(C)C3)ccc12 as the compound, how does the IC50 read?
Its IC50 is > 35.9 µM (inactive).

With CCCN(CC(=O)Nc1ccc(C(C)=O)cc1)CC(=O)Nc1ccccc1C as the compound, how does the IC50 read?
Its IC50 is > 35.9 µM (inactive).

Which IC50 does the source give for Cc1cccc(NC(=O)COC(=O)Cc2cccs2)c1C here?
Its IC50 is > 35.9 µM (inactive).

Which IC50 does the source give for COC(=O)c1ccc(CNC(=O)COC(=O)c2cc(Cl)nc(Cl)c2)cc1 here?
The IC50 was > 35.9 µM (inactive).

CC1CCCN(c2cc(N(C)CCO)c([N+](=O)[O-])c3nonc23)C1 (stereo not drawn) was tested. Which IC50 did it give?
Its IC50 is > 35.9 µM (inactive).

For Cc1ccc(NC(=O)COC(=O)C(NS(=O)(=O)c2ccc(Cl)cc2)C(C)O)c(Br)c1 (stereo not drawn), which IC50 is on record?
The IC50 was > 35.9 µM (inactive).

With CCOc1ccc(NC(=O)CSc2nncc(=O)n2N)cc1 as the compound, how does the IC50 read?
Its IC50 is > 35.9 µM (inactive).

For Cc1nn(Cc2ccccc2)c(C)c1C(=O)OCC(=O)Nc1ccccc1SCC#N, which IC50 is on record?
The IC50 was > 35.9 µM (inactive).

How did the IC50 turn out when CC(=O)Nc1cc(-c2cccnc2)cn2c(-c3ccc(F)cc3)cnc12 was run?
The IC50 was > 35.9 µM (inactive).

How did the IC50 turn out when Cc1no[n+]([O-])c1COc1ccccc1/C=N/n1nnnc1N was run?
Its IC50 is > 35.9 µM (inactive).

For CCOc1cc(/C=N/n2nnnc2N)ccc1OCc1c(C)no[n+]1[O-], which IC50 is on record?
The IC50 was > 35.9 µM (inactive).

For Cc1cc(C)c2c(=O)[nH]c(SCC(=O)Nc3ccc(Br)cc3)nc2n1, which IC50 is on record?
The IC50 was > 35.9 µM (inactive).

For COc1ccc(NC(=O)CSc2nc(N)c(-c3ccccc3)c(=O)[nH]2)cc1, which IC50 is on record?
Its IC50 is > 35.9 µM (inactive).

O=C(CSc1nnc(CNC(=O)c2ccccc2F)o1)Nc1ccc2c(c1)OCCO2 was tested. Which IC50 did it give?
Its IC50 is > 35.9 µM (inactive).

With Cc1cc(Br)ccc1NC(=O)CN1C(=O)CCC1=O as the compound, how does the IC50 read?
Its IC50 is > 35.9 µM (inactive).

How did the IC50 turn out when Cc1cc(C)c2sc(NC(=O)c3ccc([N+](=O)[O-])o3)nc2c1 was run?
The IC50 was > 35.8 µM (inactive).

How did the IC50 turn out when COc1ccccc1NC(=O)c1ccc(NC(=O)CSc2nnnn2C)cc1 was run?
The IC50 was > 35.9 µM (inactive).

Cc1ccc(NC(=O)COC(=O)c2cc(=O)c3ccccc3o2)c(Br)c1 was tested. Which IC50 did it give?
The IC50 was > 35.9 µM (inactive).

How did the IC50 turn out when COc1ccc(CC(NC(C)=O)C(=O)NC2CCN(c3nnnn3-c3ccccc3)CC2)cc1 (stereo not drawn) was run?
Its IC50 is > 35.9 µM (inactive).

How did the IC50 turn out when COc1ccc(NC(=O)CSc2sc3c(O)cc(=O)[nH]c3c2C#N)c(OC)c1 was run?
Its IC50 is > 35.9 µM (inactive).

COc1ccc(Nc2nc(NCCN3CCOCC3)nc(Nc3ccc(OC)cc3)n2)cc1 was tested. Which IC50 did it give?
The IC50 was > 35.9 µM (inactive).

How did the IC50 turn out when O=[N+]([O-])c1ccc(N2CCN(S(=O)(=O)c3ccccc3)CC2)cc1NCc1cccnc1 was run?
The IC50 was > 35.9 µM (inactive).

For COc1ccc(NC(=O)CN2C(=O)NC3(CCCC3)C2=O)cc1, which IC50 is on record?
Its IC50 is > 35.9 µM (inactive).
